Values joined by “and” are separate entries in the source; they are usually repeats but may differ in a detail not shown here. Equal values may be shown once. Inconclusive results are not listed.
System: BDF1 mice, B16 melanoma s.c., survival/tumor T/C
Assay: NCI In Vivo Anticancer Drug Screen. Data for tumor model B16 Melanoma (subcutaneous) in B6D2F1 (BDF1) mice
Details: endpoint: median survival time, higher = longer survival
Experimental: The antitumor activity of compounds was measured in mice bearing transplantable tumors. Survival or tumor size were measured and the results are expressed as the measurement made in the treated group (T) divided by the measurement made in the vehicle treated control group (C). The tumor model used in this assay is B16 Melanoma (subcutaneous) in B6D2F1 (BDF1) mice

## CC[C@]1(O)C[C@H]2CN(CCc3c([nH]c4ccccc34)[C@@](C(=O)OC)(c3cc4c(cc3OC)N(C=O)[C@H]3[C@@](O)(C(=O)OC)[C@H](OC(C)=O)[C@]5(CC)C=CCN6CC[C@]43[C@@H]65)C2)C1
dose: 0.06 mg/kg/injection, schedule: Q01DX009 (ip), vehicle: saline
  T/C: 100 % of control and 115 % of control
dose: 0.12 mg/kg/injection, schedule: Q01DX009 (ip), vehicle: saline
  T/C: 104 % of control and 121 % of control
dose: 0.13 mg/kg/injection, schedule: Q01DX009 (ip), vehicle: saline
  T/C: 100 % of control
dose: 0.7 mg/kg/injection, schedule: Q04DX003 (ip), vehicle: saline
  T/C: 93 % of control
dose: 1.0 mg/kg/injection, schedule: Q04DX003 (ip), vehicle: saline
  T/C: 100 % of control
dose: 1.5 mg/kg/injection, schedule: Q04DX003 (ip), vehicle: saline
  T/C: 113 % of control

## O=NN(CCCl)C(=O)NCCCl
dose: 0.5 mg/kg/injection, schedule: Q01DX009 (ip), vehicle: saline
  T/C: 100 % of control
dose: 1.0 mg/kg/injection, schedule: Q01DX009 (ip), vehicle: saline
  T/C: 106 % of control
dose: 1.5 mg/kg/injection, schedule: Q02DX009 (ip), vehicle: saline + alcohol
  T/C: 151 % of control
dose: 2.0 mg/kg/injection, schedule: Q01DX009 (ip), vehicle: saline
  T/C: 117 % of control
dose: 3.11 mg/kg/injection, schedule: Q01DX007 (ip), vehicle: Klucel (hydroxypropylcellulose) (HPC)
  T/C: 117 % of control
dose: 4.0 mg/kg/injection, schedule: Q01DX009 (ip), vehicle: saline
  T/C: 184 % of control
dose: 8.0 mg/kg/injection, schedule: Q01DX009 (ip), vehicle: saline
  T/C: 167 % of control
dose: 14.4 mg/kg/injection, schedule: Q01DX007 (ip), vehicle: Klucel (hydroxypropylcellulose) (HPC)
  T/C: 121 % of control

## Cc1nc(N)nc(N)c1-c1ccc(Cl)c(Cl)c1
dose: 1.0 mg/kg/injection, schedule: Q02DX009 (ip), vehicle: Klucel (hydroxypropylcellulose) (HPC)
  T/C: 103 % of control
dose: 2.0 mg/kg/injection, schedule: Q02DX009 (ip), vehicle: Klucel (hydroxypropylcellulose) (HPC)
  T/C: 99 % of control
dose: 4.0 mg/kg/injection, schedule: Q02DX009 (ip), vehicle: Klucel (hydroxypropylcellulose) (HPC)
  T/C: 88 % of control
dose: 8.0 mg/kg/injection, schedule: Q02DX009 (ip), vehicle: Klucel (hydroxypropylcellulose) (HPC)
  T/C: 112 % of control

## CCCCCc1cc(O)c2c(c1)OC(C)(C)c1ccc(C)cc1-2
dose: 64.0 mg/kg/injection, schedule: Q01DX009 (ip), vehicle: saline
  T/C: 113 % of control
dose: 128.0 mg/kg/injection, schedule: Q01DX009 (ip), vehicle: saline
  T/C: 98 % of control
dose: 256.0 mg/kg/injection, schedule: Q01DX009 (ip), vehicle: saline
  T/C: 117 % of control
dose: 512.0 mg/kg/injection, schedule: Q01DX009 (ip), vehicle: saline
  T/C: 98 % of control

## OC(CBr)C(O)C(O)C(O)CBr (stereo not given)
dose: 20.0 mg/kg/injection, schedule: Q01DX009 (ip), vehicle: Klucel (hydroxypropylcellulose) (HPC)
  T/C: 102 % of control
dose: 40.0 mg/kg/injection, schedule: Q01DX009 (ip), vehicle: Klucel (hydroxypropylcellulose) (HPC)
  T/C: 106 % of control
dose: 125.0 mg/kg/injection, schedule: Q01DX009 (ip), vehicle: Klucel (hydroxypropylcellulose) (HPC)
  T/C: 113 % of control
dose: 150.0 mg/kg/injection, schedule: Q01DX009 (ip), vehicle: Klucel (hydroxypropylcellulose) (HPC)
  T/C: 106 % of control
dose: 250.0 mg/kg/injection, schedule: Q01DX009 (ip), vehicle: Klucel (hydroxypropylcellulose) (HPC)
  T/C: 123 % of control

## ClCC[N-]CC[N-]CCCl.ClCC[N-]CC[N-]CCCl.[O-][Cl+3]([O-])([O-])O.[Zn+2]
dose: 2.5 mg/kg/injection, schedule: Q01DX009 (ip), vehicle: saline with Tween-80
  T/C: 102 % of control
dose: 5.0 mg/kg/injection, schedule: Q01DX009 (ip), vehicle: saline with Tween-80
  T/C: 94 % of control
dose: 10.0 mg/kg/injection, schedule: Q01DX009 (ip), vehicle: saline with Tween-80
  T/C: 115 % of control
dose: 20.0 mg/kg/injection, schedule: Q01DX009 (ip), vehicle: saline with Tween-80
  T/C: 89 % of control

## O=c1[nH]cc(N(CCCl)CCCl)c(=O)[nH]1
dose: 0.25 mg/kg/injection, schedule: Q01DX009 (ip), vehicle: saline with Tween-80
  T/C: 109 % of control
dose: 0.5 mg/kg/injection, schedule: Q01DX009 (ip), vehicle: saline with Tween-80
  T/C: 124 % of control

## CO[C@H]1C[C@](C)(O)Cc2cc3c(c(O)c21)C(=O)c1c(O)cc2c(c1C3=O)O[C@@H]1O[C@@]2(C)[C@H](O)[C@@H](N(C)C)[C@@H]1O
dose: 6.25 mg/kg/injection, schedule: Q01DX009 (ip), vehicle: other
  T/C: 104 % of control
dose: 12.5 mg/kg/injection, schedule: Q01DX009 (ip), vehicle: other
  T/C: 95 % of control
